Assays:
[1] = target: T1, PRMT5:MEP50 protein complex (Homo sapiens, UniProt O14744); test: In vitro assay 1: PRMT5 SPA assay ("EAA"); assay type: biochemical; details: scintillation proximity assay, methylation of biotinylated H4(1-24) peptide, 3H-SAM, 60 min at 22° C.
T1 construct: FLAG (N); made in house; host or cells: Hi5 insect cells
Source text: In Vitro Assay 1: PRMT5 SPA Assay (“EAA”)
PRMT5 inhibitory activities of the compounds described in the present invention were quantified using a scintillation proximity assay (SPA) which measures methylation by the enzyme of a synthetic, biotinylated peptide corresponding to the N-terminal sequence of Histone H4 (a.a. 1-24). The peptide of sequence […]-K(Btn)-amide is commercially available (e.g. from Biosyntan) and will be herein referred to as H4(1-24). The PRMT5:MEP50 protein complex used in the assay was produced in house following standard protocols. Briefly, full length PRMT5 and MEP50 constructs respectively tagged with N-terminal FLAG and 6× His sequences were co-expressed in Hi5 insect cells, and the recombinant protein complex was purified by FLAG affinity and size exclusion chromatography.
In a typical assay 11 different concentrations of each compound (0.1 nM, 0.33 nM, 1.1 nM, 3.8 nM, 13 nM, 44 nM, 0.15 μM, 0.51 μM, 1.7 μM, 5.9 μM and 20 μM) were tested in duplicate within the same microtiter plate. To this end, 100-fold concentrated compound solutions (in DMSO) were previously prepared by serial dilution (1:3.4) of 2 mM stocks in a clear low volume 384-well source microtiter plate (Greiner Bio-One), from which 50 nl of compounds were transferred into a white low volume test microtiter plate from the same supplier. Subsequently, 2.5 μL PRMT5 in aqueous assay buffer [20 mM Bicine pH 8.0 (Alfa Aesar), 7.5 mM Tris(2-carboxyethyl) phosphine hydrochloride (TCEP, Sigma), 0.1% (w/v) bovine gamma globuline (BGG, Sigma), 0.002% (v/v) Tween-20 (Sigma)] were added to the compounds in the test plate to a final enzyme concentration of—typically—7.5 nM (this parameter was adjusted depending on the activity of the enzyme lot in order to be within the linear dynamic range of the assay). The samples were then incubated for 15 min at 22° C. to allow pre-equilibration of the putative enzyme-inhibitor complexes before the start of the methylation reaction, which was initiated by the addition of 2.5 μL 2-fold concentrated solution (in assay buffer) of “cold” S-Adenosyl-L-Methionine (SAM, Sigma, final concentration: 0.5 μM), tritiated 3H-SAM (Perkin Elmer, final concentration: 0.5 μM) and H4(1-24) peptide substrate (final concentration: 0.06 μM). The resulting mixture (5 μL final volume) was shortly centrifuged (2 min., 1500 rpm) and incubated at 22° C. during 60 min. Thereupon the reaction was stopped by adding 3 μL of Streptavidin PS SPA imaging beads (Perkin Elmer, final concentration of 0.375 μg/μL) and “cold” SAM (AK Scientific, 250 μM final concentration) for non-specific binding reduction. Plates containing the stopped reaction were sealed with transparent adhesive foil (Perkin Elmer), centrifuged (2 min., 1500 rpm), and further incubated either 1 h at 22° C. or overnight at 4° C. in order to allow the SPA signals to develop. Subsequently, the amount of product was evaluated by measuring the energy transfer from the β-particles emitted by the 3H-labeled substrate to the Europium scintillator co-polymerized in the polystyrene matrix of the PS imaging beads, using the standard settings for this purpose of a Viewlux (Perkin-Elmer) CCD plate imaging device (emission filter 613/55 (IFP).
The resulting scintillation counts were taken as indicator for the amount of methylated peptide per well. The data were normalised using two sets of control wells (typically 16 each) for high—(=enzyme reaction with DMSO instead of test compound=0%=minimum inhibition) and low—(=all assay components without enzyme=100%=maximum inhibition) PRMT5 activity. IC50 values were calculated by fitting the normalized inhibition data to a 4-parameter logistic equation using the “Screener” analysis software from Genedata.

[2] = system: PRMT5 (histone H4 Arg3 SDMA levels in MDA-MB-468 cells); test: In vitro assay 2: quantification of SDMA (symmetric dimethylarginine) expression levels (H4 Arg3) in cancer cells, High-Content Analysis; assay type: cell-based; details: Homo sapiens, 72 h, SDMA histone H4 (Arg3) average signal intensity per cell
Source text: In Vitro Assay 2: Quantification of SDMA (Symmetric Dimethylarginine) Expression Levels (H4 Arg3) After Small Molecule Treatment of Cancer Cells
The SDMA-assay based on High-Content Analysis (HCA) enables the biological characterization of compounds inhibiting PRMT5. By this assay, substances are benchmarked on their cellular activity to modulate histone H4 Arg3 levels over broad inhibitor concentration ranges.
Cultivated cells of the human mammary gland tumor cell line MDA-MB-468 (ATCC HTB-132) were plated at a density of 2500 cells per well in a 384-well microtiter plate in 20 μL of Roswell Park Memorial Institute (RPMI) 1640 medium supplemented with 1% (v/v) glutamine, 1% (v/v) penicillin, 1% (v/v) streptomycin and 10% (v/v) fetal calf serum. After pre-incubation at 37° C. overnight, test compo unds solubilized in DMSO were added at various concentrations (0 μM, as well as in the range of 0.005 μM-30 μM; the final concentration of the solvent DMSO was 0.5% (v/v)). Cells were incubated at 37° C. for 72 h in the presence of test compounds. Thereafter, cells were fixed with 4% (v/v) paraformaldehyde in phosphate buffered saline (PBS) at room temperature for 1 h, permeabilized using 0.5% (v/v) Triton X™ 100 in PBS for 15 min and blocked with 1% (v/v) bovine serum albumin (BSA) in PBS for 30 min. In the following, cells were incubated with anti-dimethyl-histone H4 (Arg3) symmetric antibody (Millipore #07-947) at RT for 2 h. After a single washing step with blocking solution, cells were incubated with species-specific fluorescent conjugated secondary antibody Alexa Fluor™ 488 (Jackson Immuno Research #111-546-003) at RT for 2 h.
Image acquisition for cells was carried out using the confocal imaging system OPERA® (PerkinElmer). Images were captured using two channels: Hoechst 33342 stain (DNA) and Alexa Fluor™ 488 (SDMA staining); and were analyzed using the MetaXpress® software (Molecular Devices). Exposure times were chosen for individual experiments to prevent saturation and allow for quantification in the linear range. A minimum of 500 cells in 5 field views were analyzed per well using 10× water immersion objective with a two-fold binning.
The image analysis routine was developed in MetaXpress®. The standardized image-analysis module “Count Nuclei” and the images of the DNA-channel were used for nuclei segmentation. The segmented nuclei were filtered for size, shape and signal intensity to exclude possible apoptotic and non-viable cells along with metaphase nuclei. These phenotypes result in overestimated antibody signals, due to their strong chromatin compaction. For further processing, binary object masks were calculated from the segmented and positively selected nuclei. The binary masks served as templates to be superimposed over the images of the SDMA channel. The SDMA average signal intensity per cell was quantified for every image set. The assay raw data were further analyzed by four parameter logistic regression analysis using Genedata's Assay Analyzer® and Condoseo® software to determine the IC50 value for each tested compound.

T1 sequence (O14744 whole entry, species assumed): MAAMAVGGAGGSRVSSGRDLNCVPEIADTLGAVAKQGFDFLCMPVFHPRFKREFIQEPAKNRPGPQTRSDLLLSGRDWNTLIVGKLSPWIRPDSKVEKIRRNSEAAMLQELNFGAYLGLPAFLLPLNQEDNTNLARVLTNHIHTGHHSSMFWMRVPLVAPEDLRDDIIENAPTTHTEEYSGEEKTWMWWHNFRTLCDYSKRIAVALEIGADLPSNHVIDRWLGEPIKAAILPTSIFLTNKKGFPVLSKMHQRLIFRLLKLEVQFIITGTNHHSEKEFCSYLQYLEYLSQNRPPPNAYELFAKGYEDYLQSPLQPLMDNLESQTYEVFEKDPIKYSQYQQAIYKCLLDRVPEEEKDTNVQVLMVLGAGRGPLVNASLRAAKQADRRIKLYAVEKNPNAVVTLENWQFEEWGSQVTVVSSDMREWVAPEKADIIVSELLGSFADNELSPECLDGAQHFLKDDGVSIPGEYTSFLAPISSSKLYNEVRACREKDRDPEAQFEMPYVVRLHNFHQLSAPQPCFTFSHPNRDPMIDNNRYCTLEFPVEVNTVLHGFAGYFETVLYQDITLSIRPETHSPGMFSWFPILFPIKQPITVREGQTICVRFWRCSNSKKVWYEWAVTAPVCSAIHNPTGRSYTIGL
T1 sequence (Q9BQA1 whole entry partner, species assumed): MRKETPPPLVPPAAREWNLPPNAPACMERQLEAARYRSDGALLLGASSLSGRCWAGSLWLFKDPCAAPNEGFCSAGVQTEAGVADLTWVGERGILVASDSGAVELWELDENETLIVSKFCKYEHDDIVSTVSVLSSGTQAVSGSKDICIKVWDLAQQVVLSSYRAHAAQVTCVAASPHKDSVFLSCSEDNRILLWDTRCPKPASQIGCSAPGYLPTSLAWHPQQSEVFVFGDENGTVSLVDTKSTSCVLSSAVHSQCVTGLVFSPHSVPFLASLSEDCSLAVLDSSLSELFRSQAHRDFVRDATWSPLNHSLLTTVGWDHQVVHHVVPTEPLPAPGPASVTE

| Compound | IC50 [1] | IC50 [2] |
| --- | --- | --- |
| O=C(Nc1cc(C2CC2)n[nH]1)c1csc(Nc2ccccc2)n1 [Example 14, N-(3-Cyclopropyl-1H-pyrazol-5-yl)-2-(phenylamino)-1,3-thiazole-4-carboxamide] | 0.303 µM | 18.6 µM |
| Cc1cc(NC(=O)c2csc(Nc3ccc(Cl)cc3)n2)no1 [Example 20, 2-[(4-Chlorophenyl)amino]-N-(5-methyl-1,2-oxazol-3-yl)-1,3-thiazole-4-carboxamide] | 0.971 µM | ≥ 30 µM |
| O=C(NCCCCN1CCc2ccccc2C1)c1csc(Nc2ccc(Cl)cc2)n1 [Example 17, 2-[(4-Chlorophenyl)amino]-N-[4-(3,4-dihydroisoquinolin-2(1H)-yl)butyl]-1,3-thiazole-4-carboxamide] | 0.585 µM | 10 µM |
| CCN(CC)CCOc1cc(NC(=O)c2csc(Nc3ccccc3)n2)ccc1-c1ccc(C)cc1 [Example 22, N-{2-[2-(Diethylamino)ethoxy]-4′-methylbiphenyl-4-yl}-2-(phenylamino)-1,3-thiazole-4-carboxamide] | 0.941 µM | 23.4 µM |
| Cn1nc(NC(=O)c2csc(Nc3ccccc3)n2)cc1C(F)(F)F [Example 10, N-[1-Methyl-5-(trifluoromethyl)-1H-pyrazol-3-yl]-2-(phenylamino)-1,3-thiazole-4-carboxamide] | 0.238 µM | 27.9 µM |
| O=C(Nc1nc2ccccc2s1)c1csc(Nc2ccc(Cl)cc2)n1 [Example 8, N-(1,3-Benzothiazol-2-yl)-2-[(4-chlorophenyl)amino]-1,3-thiazole-4-carboxamide] | 0.111 µM | ≥ 30 µM |
| Cc1ccc(Nc2nc(C(=O)Nc3cc(C(C)(C)C)on3)cs2)cc1Cl [Example 18, N-(5-tert-Butyl-1,2-oxazol-3-yl)-2-[(3-chloro-4-methylphenyl)amino]-1,3-thiazole-4-carboxamide] | 0.819 µM | ≥ 30 µM |
| O=C(Nc1ccon1)c1csc(Nc2ccc(Cl)cc2)n1 [Example 19, 2-[(4-Chlorophenyl)amino]-N-(1,2-oxazol-3-yl)-1,3-thiazole-4-carboxamide] | 0.775 µM | ≥ 30 µM |
| CC(C)(C)c1cc(NC(=O)c2csc(Nc3ccccc3)n2)no1 [Example 3, N-(5-tert-Butyl-1,2-oxazol-3-yl)-2-(phenylamino)-1,3-thiazole-4-carboxamide] | 0.177 µM | 25.4 µM |
| O=C(Nc1cc(-c2ccccc2)[nH]n1)c1csc(Nc2ccc(Cl)cc2)n1 [Example 1, 2-[(4-Chlorophenyl)amino]-N-(5-phenyl-1H-pyrazol-3-yl)-1,3-thiazole-4-carboxamide] | 0.0548 µM | ≥ 30 µM |
| CCn1ccc(NC(=O)c2csc(Nc3ccc(Cl)cc3)n2)n1 [Example 15, 2-[(4-Chlorophenyl)amino]-N-(1-ethyl-1H-pyrazol-3-yl)-1,3-thiazole-4-carboxamide] | 0.4 µM | ≥ 30 µM |
| CC(C)(C)c1cc(NC(=O)c2csc(Nc3ccc(F)c(Cl)c3)n2)no1 [Example 46, N-(5-tert-Butyl-1,2-oxazol-3-yl)-2-[(3-chloro-4-fluorophenyl)amino]-1,3-thiazole-4-carboxamide] | 1.2 µM | – |
| O=C(Nc1ccn(CCO)n1)c1csc(Nc2ccccc2)n1 [Example 28, N-[1-(2-Hydroxyethyl)-1H-pyrazol-3-yl]-2-(phenylamino)-1,3-thiazole-4-carboxamide] | 9.1 µM | – |
| CC(C)(C)c1cc(NC(=O)c2csc(Nc3cc(Cl)ccn3)n2)no1 [Example 36, N-(5-tert-Butyl-1,2-oxazol-3-yl)-2-[(4-chloropyridin-2-yl)amino]-1,3-thiazole-4-carboxamide] | 0.105 µM | – |
| Cc1cc(F)ccc1Nc1nc(C(=O)Nc2cc(C(C)(C)C)on2)cs1 [Example 50, N-(5-tert-Butyl-1,2-oxazol-3-yl)-2-[(4-fluoro-2-methylphenyl)amino]-1,3-thiazole-4-carboxamide] | 6.71 µM | – |
